Values of other authors as cited in patent publication US20050101629A1, “Compositions of a chromene cyclooxygenase-2 selective inhibitor and a cholinergic agent for the treatment of reduced blood flow or trauma to the central nervous system” (Pharmacia Corporation, priority 2003, published 2005).

Conditions: administered to subjects following stroke; Adibhatla et al. (2002) J. Neurochem. 80:12-23

## C[N+](C)(C)CCOP(=O)(O)OP(=O)(O)OC[C@H]1O[C@@H](n2ccc(N)nc2=O)[C@H](O)[C@@H]1O [citicoline]
  behavioral parameters: improvement in behavioral parameters
  infarction volume: decrease in infarction volume
